Assay results as given in the NIST ThermoML archive (doi:10.1016/j.jct.2018.11.011).

Columns and labels:
[1] = Molar enthalpy of transition or fusion; conditions: Crystal; DSC

O=C([O][Sb]([c]1ccccc1)([c]1ccccc1)([c]1ccccc1)[c]1ccccc1)c1ccccc1 [tetraphenylantimony benzoate]
Conditions	Molar enthalpy of transition or fusion [kJ/mol]
[1]	26.4

101.33 kPa
Conditions	mass density [kg/m3]	molar entropy [J/K/mol]
5 K, Crystal, Small (less than 1 g) adiabatic calorimetry	–	0.567
10 K, Crystal, Small (less than 1 g) adiabatic calorimetry	–	4.1
15 K, Crystal, Small (less than 1 g) adiabatic calorimetry	–	11.1
20 K, Crystal, Small (less than 1 g) adiabatic calorimetry	–	20.79
25 K, Crystal, Small (less than 1 g) adiabatic calorimetry	–	31.83
30 K, Crystal, Small (less than 1 g) adiabatic calorimetry	–	43.78
35 K, Crystal, Small (less than 1 g) adiabatic calorimetry	–	56.29
40 K, Crystal, Small (less than 1 g) adiabatic calorimetry	–	69.07
45 K, Crystal, Small (less than 1 g) adiabatic calorimetry	–	81.95
50 K, Crystal, Small (less than 1 g) adiabatic calorimetry	–	94.78
60 K, Crystal, Small (less than 1 g) adiabatic calorimetry	–	120.2
70 K, Crystal, Small (less than 1 g) adiabatic calorimetry	–	145.3
80 K, Crystal, Small (less than 1 g) adiabatic calorimetry	–	169.9
90 K, Crystal, Small (less than 1 g) adiabatic calorimetry	–	194.1
100 K, Crystal, Small (less than 1 g) adiabatic calorimetry	–	217.6
120 K, Crystal, Small (less than 1 g) adiabatic calorimetry	–	262.3
140 K, Crystal, Small (less than 1 g) adiabatic calorimetry	–	305.1
160 K, Crystal, Small (less than 1 g) adiabatic calorimetry	–	346.3
180 K, Crystal, Small (less than 1 g) adiabatic calorimetry	–	386.3
200 K, Crystal, Small (less than 1 g) adiabatic calorimetry	–	425.4
220 K, Crystal, Small (less than 1 g) adiabatic calorimetry	–	463.9
240 K, Crystal, Small (less than 1 g) adiabatic calorimetry	–	501.9
260 K, Crystal, Small (less than 1 g) adiabatic calorimetry	–	539.8
273.15 K, Crystal, Small (less than 1 g) adiabatic calorimetry	–	564.6
280 K, Crystal, Small (less than 1 g) adiabatic calorimetry	–	577.5
298.15 K, Crystal, Small (less than 1 g) adiabatic calorimetry	–	611.7
298.15 K, Crystal, X-ray diffraction	1438	–
300 K, Crystal, Small (less than 1 g) adiabatic calorimetry	–	615.3
320 K, Crystal, Small (less than 1 g) adiabatic calorimetry	–	653.4
340 K, Crystal, Small (less than 1 g) adiabatic calorimetry	–	691
360 K, Crystal, Small (less than 1 g) adiabatic calorimetry	–	729
380 K, Crystal, Small (less than 1 g) adiabatic calorimetry	–	768
400 K, Crystal, Small (less than 1 g) adiabatic calorimetry	–	807
420 K, Crystal, Small (less than 1 g) adiabatic calorimetry	–	848
437.5 K, Crystal, Small (less than 1 g) adiabatic calorimetry	–	881
437.5 K, Liquid, DSC	–	940
440 K, Liquid, DSC	–	948
460 K, Liquid, DSC	–	989
480 K, Liquid, DSC	–	1030

Conditions	Normal melting temperature [°C]
Crystal, DTA	164.4
